Reference: patent US20260232713A1, “PLECOMACROLIDE DERIVATIVES FOR MHC-I NEF DOWNMODULATION” (priority 2022, published 2026)
“And” between values parts separate entries of the source, which are not always exact repeats. Equal entries are not always repeated. Where two headings read alike, the source gives them in different places.

Tests used:
V-ATPase = target: T1, V-ATPase (Homo sapiens, UniProt P27449); experiment: Lysosomal acidification (Lysotracker mean fluorescence intensity) as indicator of V-ATPase activity in primary CD4+ T cells; assay type: cell-based
T1 construct: endogenous in cells; host or cells: primary CD4+ T cells (HIV ΔGPE infected) from donor PBMCs
T1 sequence (P27449 whole entry, looked up): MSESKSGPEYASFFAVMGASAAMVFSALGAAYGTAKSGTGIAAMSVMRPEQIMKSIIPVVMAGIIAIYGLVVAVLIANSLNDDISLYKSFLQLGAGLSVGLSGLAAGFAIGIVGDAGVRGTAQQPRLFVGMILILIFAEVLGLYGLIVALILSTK
Description: (§1) Inhibition of HIV-Nef was measured by assessing its capacity to downmodulate MHC-I HLA-A2 on the surface of primary CD4+ T cells 24-hours after treatment with each compound. V-ATPase inhibition was assessed at the same time point using lysosomal acidification as an indicator of V-ATPase activity. This was measured using a flow cytometric assay that quantified Lysotracker mean fluorescence intensity as previously described (Painter et al., 2020). Cell viability was measured at 24-hour and 72-hour time points using a previously described flow cytometric assay (Painter et al., 2020).
(§2) Anonymized leukocytes isolated by apheresis were obtained from New York Blood Center and peripheral blood mononuclear cells (PBMCs) were isolated by Ficoll-Paque Plus (17144002; GE Healthcare) centrifugation using SepMate tubes (85450; StemCell Technologies) according to the manufacturers protocol. […] Then, 20-24 hours post-PHA activation, 15 mL of R10/PHA medium is removed and replaced with 5 mL of R10+100u/mL Recombinant Human IL-2 (202|L010; R&D Systems). 48 hours after IL-2 stimulation, primary CD4^+ T cells were infected via spinoculation with previously described HIV ΔGPE construct.
(§3) 48 hours after spinoculation, cells were pooled and plated in flat bottom 96-well plate. […] Compounds were thawed at room temperature and diluted in R10 medium to 2× starting concentration.
(§4) All ΔGPE infected cells were collected 24 hours after treatment.
(§5) All statistical analyses were performed using GraphPad Prism software. Curves were generated using GraphPad Prism software using [Inhibitor] vs. response with variable slope (four parameters).

primary CD4+ T cells = experiment: in vitro; conditions: for CC50: read-out: Viability (TC50), mock primary CD4+ T cells, 72 hours after treatment; for Viability:Nef (therapeutic window separating Nef IC50 and TC50): ratio TC50 to Nef IC50
Description: as §1, §2, §3, §4
(§6) All Mock cells were collected 72 hours after treatment.
as §5

in vitro = conditions: human
Description: as §1, §2, §3, §4, §6, §5

[1] = Lysotracker Red, ΔGPE infected primary CD4+ T cells, 24 hours after treatment, read-out: Lysotracker (V-ATPase IC50, lysosomal neutralization)

Molecule: 23-OH-tylactone [Compound S46, reference compound]
- IC50 (V-ATPase; [1]): > 1000 nM
- CC50 (primary CD4+ T cells): > 1000 nM

Molecule: CC[C@H]1OC(=O)[C@H](C)[C@@H](O)[C@@H](C)C[C@@H](C)C(=O)/C=C/[C@H]1C [10-deoxymethynolide, reference compound]
- IC50 (V-ATPase; [1]): 1720 nM
- Viability:Nef (therapeutic window separating Nef IC50 and TC50) (primary CD4+ T cells): 0.39 fold
- CC50 at 72 h (in vitro): 140 nM

Molecule: CC=CC1OC(O)(C(C)C(O)C(C)C2OC(=O)C(OC)=CC(C)=CC(C)C(O)C(CC)C(O)C(C)CC(C)=CC=CC2OC)CC(OC2CC(O)C(OC(N)=O)C(C)O2)C1C (stereo not drawn) [Compound 1, Concanamycin A, reference compound]
- IC50 (V-ATPase): 1.7 nM
- Viability:Nef (therapeutic window separating Nef IC50 and TC50) (primary CD4+ T cells): 6.6 fold
- CC50 (in vitro): 1.3 nM

Molecule: CC=CC1OC(O)(C(C)C(O)C(C)C2OC(=O)C(OC)=CC(C)=CC(C)C(O)C(C)C(O)C(C)CC(C)=CC=CC2OC)CC(OC2CC(O)C(OC(N)=O)C(C)O2)C1C (stereo not drawn) [Compound 4, concanamycin B, reference compound]
- IC50 (V-ATPase): 26 nM
- Viability:Nef (therapeutic window separating Nef IC50 and TC50) (primary CD4+ T cells): 5 fold and 5.5 fold
- CC50 (in vitro): 7 nM

Molecule: C/C=C/[C@H]1O[C@@](O)([C@@H](C)[C@H](O)[C@H](C)[C@H]2OC(=O)/C(OC)=C/C(C)=C/[C@@H](C)[C@@H](O)[C@@H](CC)[C@@H](O)[C@H](C)C/C(C)=C/C=C/[C@@H]2OC)C[C@@H](O[C@H]2C[C@@H](O)[C@H](O)[C@@H](C)O2)[C@@H]1C [Compound 5, concanamycin C, reference compound]
- IC50 (V-ATPase; [1]): 3.7 nM
- Viability:Nef (therapeutic window separating Nef IC50 and TC50) (primary CD4+ T cells): 2.3 fold
- CC50 (primary CD4+ T cells): 1.3 nM

Molecule: C/C=C/[C@H]1O[C@@](O)([C@@H](C)[C@H](O)[C@H](C)[C@H]2OC(=O)/C(OC)=C/C(C)=C/[C@@H](C)[C@@H](O)[C@@H](CC)[C@@H](O)[C@H](C)C/C(C)=C/C=C/[C@@H]2OC)C[C@@H](O)[C@@H]1C [Compound 6, Concanamycin F]
- IC50 (V-ATPase): 5.8 nM
- CC50 (in vitro): 2.9 nM

Molecule: C/C=C/[C@H]1O[C@@](O)([C@@H](C)[C@H](O)[C@H](C)[C@H]2OC(=O)/C(OC)=C/C(C)=C/[C@@H](C)[C@@H](O)[C@@H](C)[C@@H](O)[C@H](C)C/C(C)=C/C=C/[C@@H]2OC)C[C@@H](O)[C@@H]1C [Compound 7, Concanamycin X]
- IC50 (V-ATPase): 38 nM
- CC50 (in vitro): 14 nM

Molecule: C/C=C/[C@H]1O[C@@](O)([C@@H](C)[C@H](O)[C@H](C)[C@H]2OC(=O)/C(OC)=C/C(C)=C/[C@@H](C)[C@@H](O)[C@@H](CC)[C@@H](O)[C@H](C)C/C(C)=C/C=C/[C@@H]2OC)C[C@@H](O[C@@H]2C[C@H](OC(=O)CCCC)[C@@H](OC(N)=O)[C@H](C)O2)[C@@H]1C [Compound 8, 3-pentanoate Concanamycin A]
- IC50 (V-ATPase): 11 nM
- Viability:Nef (therapeutic window separating Nef IC50 and TC50) (primary CD4+ T cells): 4.8 fold
- CC50 (in vitro): 3.5 nM

Molecule: C/C=C/[C@H]1O[C@@](O)([C@@H](C)[C@H](O)[C@H](C)[C@H]2OC(=O)/C(OC)=C/C(C)=C/[C@@H](C)[C@@H](O)[C@@H](C)[C@@H](O)[C@H](C)C/C(C)=C/C=C/[C@@H]2OC)C[C@@H](O[C@@H]2C[C@H](OC(=O)CCCC)[C@@H](OC(N)=O)[C@H](C)O2)[C@@H]1C [Compound 9, 3-pentanoate Concanamycin B]
- IC50 (V-ATPase): 110 nM
- Viability:Nef (therapeutic window separating Nef IC50 and TC50) (primary CD4+ T cells): 7.9 fold
- CC50 (in vitro): 27 nM

Molecule: C/C=C/[C@H]1O[C@@](O)([C@@H](C)[C@H](O)[C@H](C)[C@H]2OC(=O)/C(OC)=C/C(C)=C/[C@@H](C)[C@@H](O)[C@@H](C)[C@@H](OC(=O)CCCC)[C@H](C)C/C(C)=C/C=C/[C@@H]2OC)C[C@@H](O[C@@H]2C[C@H](OC(=O)CCCC)[C@@H](OC(N)=O)[C@H](C)O2)[C@@H]1C [Compound 10, 3′,9-Dipentanoate Concanamycin B]
- IC50 (V-ATPase): 130 nM
- Viability:Nef (therapeutic window separating Nef IC50 and TC50) (primary CD4+ T cells): 5.8 fold
- CC50 (in vitro): 35 nM

Molecule: C/C=C/[C@H]1O[C@@](O)([C@@H](C)[C@H](O)[C@H](C)[C@H]2OC(=O)/C(OC)=C/C(C)=C/[C@@H](C)[C@@H](O)[C@@H](C)[C@@H](O)[C@H](C)C/C(C)=C/C=C/[C@@H]2OC)C[C@@H](O[C@@H]2C[C@H](OC(=O)CCCCCCCC)[C@@H](OC(N)=O)[C@H](C)O2)[C@@H]1C [Compound 11, 3-nonanoate Concanamycin B]
- IC50 (V-ATPase): 170 nM
- Viability:Nef (therapeutic window separating Nef IC50 and TC50) (primary CD4+ T cells): 4.3 fold
- CC50 (in vitro): 36 nM

Molecule: C/C=C/[C@H]1O[C@@](O)([C@@H](C)[C@H](O)[C@H](C)[C@H]2OC(=O)/C(OC)=C/C(C)=C/[C@@H](C)[C@@H](O)[C@@H](C)[C@@H](O)[C@H](C)C/C(C)=C/C=C/[C@@H]2OC)C[C@@H](O[C@@H]2C[C@H](OC(C)=O)[C@@H](OC(N)=O)[C@H](C)O2)[C@@H]1C [Compound 12, 3′-Acetyl Concanamycin B]
- IC50 (V-ATPase): 20 nM
- Viability:Nef (therapeutic window separating Nef IC50 and TC50) (primary CD4+ T cells): 8 fold and 8.0 fold
- CC50 (in vitro): 5.3 nM

Molecule: C/C=C/[C@H]1O[C@@](O)([C@@H](C)[C@H](O)[C@H](C)[C@H]2OC(=O)/C(OC)=C/C(C)=C/[C@@H](C)[C@@H](O)[C@@H](C)[C@@H](OC(C)=O)[C@H](C)C/C(C)=C/C=C/[C@@H]2OC)C[C@@H](O[C@@H]2C[C@H](OC(C)=O)[C@@H](OC(N)=O)[C@H](C)O2)[C@@H]1C [Compound 13, 3′,9-Diacetyl CMB]
- IC50 (V-ATPase): 38 nM
- Viability:Nef (therapeutic window separating Nef IC50 and TC50) (primary CD4+ T cells): 8.8 fold
- CC50 (in vitro): 8 nM

Molecule: C/C=C/[C@H]1O[C@@](O)([C@@H](C)[C@H](O)[C@H](C)[C@H]2OC(=O)/C(OC)=C/C(C)=C/[C@@H](C)[C@@H](O)[C@@H](CC)[C@@H](O)[C@H](C)C/C(C)=C/C=C/[C@@H]2OC)C[C@@H](O[C@@H]2C[C@H](OC(C)=O)[C@@H](OC(N)=O)[C@H](C)O2)[C@@H]1C [Compound 14, 3′-Acetyl CMA]
- IC50 (V-ATPase): 3.7 nM
- Viability:Nef (therapeutic window separating Nef IC50 and TC50) (primary CD4+ T cells): 8.5 fold
- CC50 (in vitro): 1.6 nM

Molecule: COc1cc2c(O)c3c(c(-c4ccc5c(c4)OCO5)c2cc1OC)C(=O)OC3 [Compound S1, Diphyllin, reference compound]
- IC50 (V-ATPase; [1]): > 1000 nM
- CC50 at 72 h (in vitro): > 1000 nM

Molecule: C=CC(C)C(OC(=O)[C@@H](C)[C@H](O)[C@H](C)[C@H]1OC(=O)/C(OC)=C/C(C)=C/[C@@H](C)[C@@H](O)[C@@H](C)C/C(C)=C/C=C/[C@@H]1OC)C(C)C (stereo partly drawn) [Compound S8]
- IC50 (V-ATPase): > 1000 nM
- CC50 (in vitro): 520 nM

Molecule: CO/C1=C\C(C)=C\[C@@H](C)[C@@H](O)[C@@H](C)C/C(C)=C/C=C/[C@H](OC)[C@@H]([C@@H](C)[C@@H](O)[C@H](C)[C@@]2(O)C[C@@H](OC(=O)c3ccccc3)[C@H](C)[C@@H](C(C)C)O2)OC1=O [Compound S13]
- IC50 (V-ATPase): 140 nM
- CC50 (in vitro): 130 nM

Molecule: CO[C@H]1/C=C/O[C@@]2(C)Oc3c(C)c(O)c4c(O)c(c(/C=N/N5CCN(C)CC5)c(O)c4c3C2=O)NC(=O)/C(C)=C\C=C\[C@H](C)[C@H](O)[C@@H](C)[C@@H](O)[C@@H](C)[C@H](OC(C)=O)[C@@H]1C [Compound S26, Rifampicin, reference compound]
- IC50 (V-ATPase; [1]): > 1000 nM
- CC50 at 72 h (in vitro): > 1000 nM

Molecule: CCC1OC(=O)C(C)C(OC2OC(C)CC(N(C)C)C2O)C(C)CC(C)C(=O)C=CC1C (stereo not drawn) [Compound S30, YC-17, reference compound]
- IC50 (V-ATPase; [1]): > 1000 nM
- CC50 at 72 h (in vitro): > 1000 nM

Molecule: CC[C@H]1OC(=O)[C@H](C)[C@@H](O[C@H]2C[C@@](C)(OC)[C@@H](O)[C@H](C)O2)[C@H](C)[C@@H](O[C@@H]2O[C@H](C)C[C@H](N(C)C)[C@H]2O)[C@](C)(O)C[C@@H](C)C(=O)[C@H](C)[C@@H](O)[C@H]1C [Compound S32, Erythromycin B, reference compound]
- IC50 (V-ATPase; [1]): > 1000 nM
- CC50 at 72 h (in vitro): > 1000 nM

Molecule: CC[C@H]1OC(=O)[C@H](C)C(=O)[C@H](C)[C@@H](O[C@@H]2O[C@H](C)C[C@H](N(C)C)[C@H]2O)[C@@H](C)C[C@@H](C)C(=O)/C=C/[C@H]1C [Compound S33, Narbomycin, reference compound]
- IC50 (V-ATPase; [1]): > 1000 nM
- CC50 at 72 h (in vitro): > 1000 nM

Molecule: CC1=CC[C@H]2O[C@]1(C)O[C@H]([C@H](C)/C=C(C)/C=C/C(O)=C1/C(=O)CNC1=O)[C@H]2C [Tirandamycin C, reference compound]
- IC50 (V-ATPase): > 1000 nM
- CC50 (in vitro): > 1000 nM

Molecule: Des-tylactone [Compound S47, reference compound]
- IC50 (V-ATPase; [1]): > 1000 nM
- CC50 (primary CD4+ T cells): > 1000 nM
